Activity calls are given as the source filed them.
Legend:
Type in all cases: functional, organism-based
Niallia circulans [1] = test: Antibacterial activity against Bacillus circulans NRRLB-380 assessed as inhibition of bacterial growth incubated for overnight by disk diffusion method
Klebsiella pneumoniae = test: Antibacterial activity against Klebsiella pneumoniae DSM26371 assessed as inhibition of bacterial growth incubated for overnight by disk diffusion method
Niallia circulans [2] = test: Antibacterial activity against Bacillus circulans NRRLNRS-1108 assessed as inhibition of bacterial growth incubated for overnight by disk diffusion method
Staphylococcus aureus = test: Antibacterial activity against Staphylococcus aureus ATCC 29213 assessed as inhibition of bacterial growth incubated for overnight by disk diffusion method
Bacillus subtilis [3] = test: Antibacterial activity against Bacillus subtilis BSB01 assessed as inhibition of bacterial growth incubated for overnight by disk diffusion method
Escherichia coli [4] = test: Antibacterial activity against Escherichia coli ATCC 25922 assessed as inhibition of bacterial growth incubated for overnight by disk diffusion method
Escherichia coli [5] = test: Antibacterial activity against Escherichia coli DH5alpha assessed as inhibition of bacterial growth incubated for overnight by disk diffusion method
Pseudomonas aeruginosa = test: Antibacterial activity against Pseudomonas aeruginosa ATCC 27853 assessed as inhibition of bacterial growth incubated for overnight by disk diffusion method
Staphylococcus delphini = test: Antibacterial activity against Staphylococcus delphini DSM20771 assessed as inhibition of bacterial growth incubated for overnight by disk diffusion method
Enterococcus faecalis = test: Antibacterial activity against Enterococcus faecalis DSM2570 assessed as inhibition of bacterial growth incubated for overnight by disk diffusion method
Bacillus subtilis [6] = test: Antibacterial activity against Bacillus subtilis NCIB3610 assessed as inhibition of bacterial growth incubated for overnight by disk diffusion method
Niallia circulans [7] = test: Antibacterial activity against Bacillus circulans NRRLB-14032 assessed as inhibition of bacterial growth incubated for overnight by disk diffusion method

Measured: Activity

Nc1nc2[nH]c(-c3[nH]c4ccccc4c3C[C@@H]3NC(=O)[C@H](Cc4c[nH]c5ccccc45)NC3=O)nc2c(=O)[nH]1
inactive: all assays above

Nc1nc2[nH]c(-c3[nH]c4ccccc4c3C[C@@H]3NC(=O)[C@H](Cc4ccc(O)cc4)NC3=O)nc2c(=O)[nH]1
inactive: all assays above

Nc1nc2[nH]c(-c3[nH]c4ccccc4c3C[C@@H]3NC(=O)[C@H](Cc4ccccc4)NC3=O)nc2c(=O)[nH]1
inactive: all assays above

Nc1nc2[nH]c(-c3[nH]c4ccccc4c3C[C@@H]3NC(=O)/C(=C/c4ccc(O)cc4)NC3=O)nc2c(=O)[nH]1
inactive: all assays above

Nc1nc2[nH]c(-c3[nH]c4ccccc4c3C[C@@H]3NC(=O)/C(=C/c4ccccc4)NC3=O)nc2c(=O)[nH]1
inactive: all assays above

Source: ChEMBL document CHEMBL5226376, “A Streptomyces Cytochrome P450 Enzyme Catalyzes Regiospecific C2-Guaninylation for the Synthesis of Diverse Guanitrypmycin Analogs” (J Nat Prod, 2023)
